Measurements: paper PMC7048932, “Examining sterically demanding lysine analogs for histone lysine methyltransferase catalysis” (Scientific Reports, 2020)
“Also recorded” adds a separate entry of the source.

Experiments:
SETD7 = assay: MALDI-TOF MS methylation assay of H3K4 peptides with SETD7; type: biochemical, human; conditions: peptide 100 µM, SETD7 2 µM, SAM 200 µM, 1 h, 37 °C
Procedure: (§1) MALDI-MS methyltransferases activity experiments were performed using a Bruker instrument in the reflectron positive mode. For regular methyltransferase standard conditions experiment which carried out in 30 µL total volume, the mixture contains peptide (100 µM), SAM (200 µM), SETD8 or SETD7 (2 µM), in assay buffer 50 mM Tris at optimal pH 8.0. In case of G9a and GLP, similar conditions were used, except (500 µM) of SAM was added to the reaction mixture. Samples were incubated in an Eppendorf vial 1.5 mL using thermomixer for 1 h at 37 °C. A 5 µL aliquot of the solution was mixed with 5 µL of MeOH, after which 5 µL of this mixture was mixed with 5 µL of α-cyano-4-hydroxycinamic acid matrix (CHCA, 5 mg/mL in 125:125 µL acetonitrile/water). The spots were placed on a stainless steel MALDI plate (MS 96 target ground steel BC of Bruker, Germany). The mass corresponding to one monomethylation observed as +14 Da, dimethylation observed as +28 Da and trimethylation observed as +42 Da. The enzymatic activity was determined by taking the peak areas of each methylation state, including all isotopes and adducts, and was annotated using FlexAnalysis software (Bruker Daltonics, Germany). […] Methylated peptide substrates were repeated five times and the unmethylated substrates were triplicated. Sequences of the examined peptides are given in (Supplementary Table 1).

GLP [1] = molecular target: T1, GLP (Homo sapiens, UniProt Q9H9B1); assay: NMR assay of GLP-catalyzed methylation of H3K9 peptides; type: biochemical; conditions: peptide 400 µM, GLP 8 µM, SAM 2 mM, 50 mM Tris-d11.HCl pD 8.0, 1 h, 37 °C
T1 construct: His6 (N); made in house; host or cells: E. coli BL21 (DE3)pLysS-rosetta
T1 sequence (Q9H9B1 1-1298): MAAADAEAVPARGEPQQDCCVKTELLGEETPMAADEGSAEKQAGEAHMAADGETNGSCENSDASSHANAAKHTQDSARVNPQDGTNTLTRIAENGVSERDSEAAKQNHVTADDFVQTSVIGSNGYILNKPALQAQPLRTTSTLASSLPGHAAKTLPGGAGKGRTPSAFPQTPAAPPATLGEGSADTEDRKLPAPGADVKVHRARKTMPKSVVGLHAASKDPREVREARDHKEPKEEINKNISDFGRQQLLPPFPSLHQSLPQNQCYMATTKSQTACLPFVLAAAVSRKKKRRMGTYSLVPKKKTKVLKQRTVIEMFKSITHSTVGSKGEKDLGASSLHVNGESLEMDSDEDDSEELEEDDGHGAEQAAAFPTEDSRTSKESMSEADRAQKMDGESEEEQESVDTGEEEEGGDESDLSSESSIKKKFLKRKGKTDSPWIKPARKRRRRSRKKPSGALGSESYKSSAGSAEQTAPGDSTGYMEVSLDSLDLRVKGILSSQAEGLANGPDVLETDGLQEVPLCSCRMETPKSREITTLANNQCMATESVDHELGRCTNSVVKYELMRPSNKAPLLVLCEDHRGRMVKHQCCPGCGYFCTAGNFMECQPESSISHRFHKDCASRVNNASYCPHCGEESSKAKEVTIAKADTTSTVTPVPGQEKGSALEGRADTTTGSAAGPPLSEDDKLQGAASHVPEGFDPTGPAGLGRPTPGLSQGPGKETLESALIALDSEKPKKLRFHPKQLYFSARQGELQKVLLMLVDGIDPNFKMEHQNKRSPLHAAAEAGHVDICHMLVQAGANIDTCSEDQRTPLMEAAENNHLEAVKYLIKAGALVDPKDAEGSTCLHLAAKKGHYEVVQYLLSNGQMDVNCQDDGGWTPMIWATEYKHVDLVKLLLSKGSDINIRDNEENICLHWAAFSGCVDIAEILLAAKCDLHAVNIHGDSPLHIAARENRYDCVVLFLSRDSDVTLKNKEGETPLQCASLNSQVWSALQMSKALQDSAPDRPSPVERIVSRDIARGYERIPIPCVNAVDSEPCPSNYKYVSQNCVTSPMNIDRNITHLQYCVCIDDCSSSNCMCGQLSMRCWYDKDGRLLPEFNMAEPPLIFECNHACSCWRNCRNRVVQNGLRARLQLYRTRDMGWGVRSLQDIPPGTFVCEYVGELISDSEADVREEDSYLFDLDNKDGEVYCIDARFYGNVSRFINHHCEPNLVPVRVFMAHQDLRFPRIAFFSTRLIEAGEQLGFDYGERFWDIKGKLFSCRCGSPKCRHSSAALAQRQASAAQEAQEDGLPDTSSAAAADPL

G9a = molecular target: T2, G9a (Homo sapiens, UniProt Q96KQ7); assay: MALDI-TOF MS methylation assay of H3K9 peptides with G9a; type: biochemical; conditions: peptide 100 µM, G9a 2 µM, SAM 500 µM, 1 h, 37 °C
T2 construct: His6 (N); made in house; host or cells: E. coli BL21 (DE3)pLysS-rosetta
T2 sequence (Q96KQ7 1-1210): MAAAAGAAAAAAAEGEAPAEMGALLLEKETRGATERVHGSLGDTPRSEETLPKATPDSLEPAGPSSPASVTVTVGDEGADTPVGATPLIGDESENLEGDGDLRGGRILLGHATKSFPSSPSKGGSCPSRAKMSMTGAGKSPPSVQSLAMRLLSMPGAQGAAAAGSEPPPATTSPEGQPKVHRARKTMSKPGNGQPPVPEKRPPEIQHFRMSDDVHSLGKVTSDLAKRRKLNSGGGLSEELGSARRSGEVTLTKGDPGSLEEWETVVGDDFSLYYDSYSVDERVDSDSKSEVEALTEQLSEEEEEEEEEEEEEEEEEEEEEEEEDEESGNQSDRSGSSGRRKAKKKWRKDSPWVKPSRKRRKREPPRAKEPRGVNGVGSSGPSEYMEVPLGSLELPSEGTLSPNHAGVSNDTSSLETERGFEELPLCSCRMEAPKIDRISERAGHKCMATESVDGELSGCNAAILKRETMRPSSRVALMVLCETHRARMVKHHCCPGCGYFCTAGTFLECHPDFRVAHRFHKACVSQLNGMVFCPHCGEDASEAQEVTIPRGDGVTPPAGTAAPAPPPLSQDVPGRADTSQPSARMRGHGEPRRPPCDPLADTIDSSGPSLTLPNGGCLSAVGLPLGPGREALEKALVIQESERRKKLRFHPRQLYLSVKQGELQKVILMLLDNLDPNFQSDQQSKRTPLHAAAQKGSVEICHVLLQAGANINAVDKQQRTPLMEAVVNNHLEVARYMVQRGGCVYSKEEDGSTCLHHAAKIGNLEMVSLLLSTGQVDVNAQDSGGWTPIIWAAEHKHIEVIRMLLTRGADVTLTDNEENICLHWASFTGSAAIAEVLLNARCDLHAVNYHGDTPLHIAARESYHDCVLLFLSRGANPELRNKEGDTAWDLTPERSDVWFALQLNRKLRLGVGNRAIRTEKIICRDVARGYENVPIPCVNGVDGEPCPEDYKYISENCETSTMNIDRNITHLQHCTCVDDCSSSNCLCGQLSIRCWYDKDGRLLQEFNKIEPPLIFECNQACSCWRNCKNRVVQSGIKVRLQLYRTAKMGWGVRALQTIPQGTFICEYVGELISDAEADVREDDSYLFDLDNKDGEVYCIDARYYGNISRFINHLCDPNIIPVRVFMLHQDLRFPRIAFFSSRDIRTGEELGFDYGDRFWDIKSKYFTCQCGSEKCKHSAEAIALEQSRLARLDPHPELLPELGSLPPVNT
Procedure: as §1

GLP [2] = molecular target: T1, GLP; assay: MALDI-TOF MS methylation assay of H3K9 peptides with GLP; type: biochemical; conditions: peptide 100 µM, GLP 10 µM, SAM 1 mM, 5 h, 37 °C, MALDI-MS
Procedure: as §1, with “Samples were incubated in an Eppendorf vial 1.5 mL using thermomixer for 1 h at 37 °C.” left out

SETD8 = molecular target: T3, SETD8 (Homo sapiens, UniProt Q9NQR1); assay: MALDI-TOF MS methylation assay of H4K20 peptides with SETD8; type: biochemical; conditions: peptide 100 µM, SETD8 10 µM, SAM 1 mM, 1 h and 5 h, 37 °C, MALDI-MS
T3 construct: His6 (N); made in house; host or cells: E. coli BL21 (DE3)pLysS-rosetta
T3 sequence (Q9NQR1 1-393): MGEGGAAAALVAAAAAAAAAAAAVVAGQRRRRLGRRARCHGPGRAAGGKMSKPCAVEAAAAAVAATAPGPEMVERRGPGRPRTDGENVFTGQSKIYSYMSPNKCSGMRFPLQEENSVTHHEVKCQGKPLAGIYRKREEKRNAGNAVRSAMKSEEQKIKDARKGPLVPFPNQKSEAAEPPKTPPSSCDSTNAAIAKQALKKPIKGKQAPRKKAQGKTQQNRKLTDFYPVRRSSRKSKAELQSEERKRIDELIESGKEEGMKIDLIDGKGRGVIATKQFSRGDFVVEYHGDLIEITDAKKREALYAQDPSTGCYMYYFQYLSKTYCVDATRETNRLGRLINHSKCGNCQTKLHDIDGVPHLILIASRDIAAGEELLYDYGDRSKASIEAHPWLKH
Procedure: as §1, with “For regular methyltransferase standard conditions experiment which carried out in 30 µL total volume, the mixture contains peptide (100 µM), SAM (200 µM), SETD8 or SETD7 (2 µM), in assay buffer 50 mM Tris at optimal pH 8.0.” left out

Substance	SETD7-catalyzed methylation, result in words (SETD7)	G9a-catalyzed methylation, result in words (G9a)	SETD8-catalyzed methylation, result in words, increased SETD8/SAM and prolonged incubation (SETD8)	other results
ART(Ap4)QTARKSTGGKA [H3AP4, H3K4 peptide bearing pyridylalanine at position 4]	lack of methylation	–	–	–
ART(F3a4)QTARKSTGGKA [H3F3a4, H3K4 peptide bearing meta-aminophenylalanine at position 4]	lack of methylation	–	–	–
ART(Kba4)QTARKSTGGKA [H3Kba4, H3K4 peptide bearing benzylamine lysine analog at position 4]	lack of methylation	–	–	–
ART(Y4)QTARKSTGGKA [H3Y4, H3K4 peptide bearing tyrosine at position 4]	lack of methylation	–	–	–
ARTKQTAR(Ap9)STGGKA [H3AP9]	–	lack of methylation	–	GLP-catalyzed methylation by 1H NMR / 1H-13C HSQC, result in words (GLP [1]): not methylated; GLP-catalyzed methylation, result in words, increased GLP/SAM (GLP [2]): lack of methylation
ARTKQTAR(F4a9)STGGKA [H3F4a9]	–	lack of methylation	–	GLP-catalyzed methylation by 1H NMR / 1H-13C HSQC, result in words (GLP [1]): not methylated; GLP-catalyzed methylation, result in words, increased GLP/SAM (GLP [2]): lack of methylation
ARTKQTAR(Y9)STGGKA (ARTKQTARYSTGGKA) [H3Y9]	–	lack of methylation	–	GLP-catalyzed methylation by 1H NMR / 1H-13C HSQC, result in words (GLP [1]): not methylated; GLP-catalyzed methylation, result in words, increased GLP/SAM (GLP [2]): lack of methylation
ARTKQTARKSTGGK [H3 1-14K9, reference compound]	–	trimethylation	–	–
ARTK^4QTARKSTGGKA [H3K4, reference compound]	formation of monomethylated H3K4; also recorded: monomethylation	–	–	–
GGAKRHR(Ap20)VLRDNIQ [H4AP20, H4K20 peptide bearing pyridylalanine at position 20]	–	–	lack of methylation	–
GGAKRHR(F3a20)VLRDNIQ [H4F3a20, H4K20 peptide bearing meta-aminophenylalanine at position 20]	–	–	lack of methylation	–
GGAKRHR(F4a20)VLRDNIQ [H4F4a20, H4K20 peptide bearing para-aminophenylalanine at position 20]	–	–	lack of methylation	–
GGAKRHR(Y20)VLRDNIQ [H4Y20, H4K20 peptide bearing tyrosine at position 20]	–	–	lack of methylation	–
